Data on 21 molecules can be found in US20240262826A1, “WILD TYPE KIT INHIBITORS” (Blueprint Medicines Corporation, priority 2022, published 2024).

Data set [1] concerns the target wild type c-kit (Homo sapiens (Human), UniProt P10721). Briefly: PathScan phospho c-kit (Tyr719) sandwich ELISA in SCF-stimulated M-07e cells (pKIT assay). In kind it is cell-based. The settings on record: ELISA assay (values not marked *). In short, it runs like this:
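Tyr719-phosphorylated c-kit was measured by colorimetric (TMB) sandwich ELISA in lysates of M-07e cells. Cells were starved 4 h without serum or GM-CSF, dosed 60 min at 37 °C with compound (8 points, duplicate, 0.25% DMSO), and stimulated 10 min with human SCF (500 ng/mL as added). IC50 values came from 4-parameter logistic regression.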
(In an ELISA, binding on a coated surface is turned into a signal by an enzyme label.)

The target of data set [2] is human P-glycoprotein (P-gp, MDR1) (Homo sapiens (Human), UniProt P08183). The data set is described as follows: MDCK-MDR1 cell monolayer drug transport assay (P-gp efflux ratio). Conditions: pH 7.4, MDCK-MDR1 cells; for efflux ratio at 2 h, 1 µM: 1 uM concentration of compound, read-out: Pgp Efflux Ratio, 1 uM; for efflux ratio at 2 h, 0.1 µM: 0.1 uM concentration of compound (denoted by **), read-out: Pgp Efflux Ratio. The class given is in vitro ADME. In short, it runs like this:
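P-gp substrate potential tested in MDCK-MDR1 monolayers on Transwell supports, cultured 4-8 days; monolayers with TEER <42 ohms·cm2 discarded. Transport run in HBSS (10 mM HEPES, pH 7.4) at 37° C with compound working solution at 1 μM.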

Molecules are shown by their SMILES.

Chain of human P-glycoprotein (P-gp, MDR1) (P08183 whole entry): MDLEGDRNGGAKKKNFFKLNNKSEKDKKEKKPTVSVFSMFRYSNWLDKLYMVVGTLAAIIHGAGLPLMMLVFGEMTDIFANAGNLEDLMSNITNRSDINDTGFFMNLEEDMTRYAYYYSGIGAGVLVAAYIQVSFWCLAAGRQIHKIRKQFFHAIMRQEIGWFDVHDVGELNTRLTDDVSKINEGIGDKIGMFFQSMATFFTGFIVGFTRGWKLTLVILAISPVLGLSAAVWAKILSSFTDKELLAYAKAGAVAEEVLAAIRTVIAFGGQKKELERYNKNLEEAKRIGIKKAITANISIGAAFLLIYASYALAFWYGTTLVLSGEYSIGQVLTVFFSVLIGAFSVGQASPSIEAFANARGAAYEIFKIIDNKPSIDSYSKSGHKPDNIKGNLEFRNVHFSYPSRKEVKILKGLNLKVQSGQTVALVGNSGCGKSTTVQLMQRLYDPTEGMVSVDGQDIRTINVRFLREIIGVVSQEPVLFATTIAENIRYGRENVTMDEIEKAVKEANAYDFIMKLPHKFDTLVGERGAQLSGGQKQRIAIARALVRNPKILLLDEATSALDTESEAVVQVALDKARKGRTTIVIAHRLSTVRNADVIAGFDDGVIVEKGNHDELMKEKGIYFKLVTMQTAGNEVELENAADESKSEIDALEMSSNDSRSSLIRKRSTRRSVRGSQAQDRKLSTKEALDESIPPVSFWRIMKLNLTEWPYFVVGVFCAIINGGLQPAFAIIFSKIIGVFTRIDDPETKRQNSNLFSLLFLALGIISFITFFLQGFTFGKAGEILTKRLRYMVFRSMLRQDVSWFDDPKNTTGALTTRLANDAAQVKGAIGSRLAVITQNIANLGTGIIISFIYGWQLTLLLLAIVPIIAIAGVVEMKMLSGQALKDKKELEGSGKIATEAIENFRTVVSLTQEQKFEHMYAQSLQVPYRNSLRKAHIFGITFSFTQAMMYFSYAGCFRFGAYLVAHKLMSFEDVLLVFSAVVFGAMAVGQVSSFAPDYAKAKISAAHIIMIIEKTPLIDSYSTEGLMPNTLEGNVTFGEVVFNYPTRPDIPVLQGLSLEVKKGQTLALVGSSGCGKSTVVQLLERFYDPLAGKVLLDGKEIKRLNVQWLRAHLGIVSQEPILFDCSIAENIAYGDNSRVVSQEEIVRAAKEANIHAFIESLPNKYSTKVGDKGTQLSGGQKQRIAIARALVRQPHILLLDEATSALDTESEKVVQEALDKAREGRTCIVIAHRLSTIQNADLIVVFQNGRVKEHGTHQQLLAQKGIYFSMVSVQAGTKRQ
Chain of wild type c-kit (P10721 26-976): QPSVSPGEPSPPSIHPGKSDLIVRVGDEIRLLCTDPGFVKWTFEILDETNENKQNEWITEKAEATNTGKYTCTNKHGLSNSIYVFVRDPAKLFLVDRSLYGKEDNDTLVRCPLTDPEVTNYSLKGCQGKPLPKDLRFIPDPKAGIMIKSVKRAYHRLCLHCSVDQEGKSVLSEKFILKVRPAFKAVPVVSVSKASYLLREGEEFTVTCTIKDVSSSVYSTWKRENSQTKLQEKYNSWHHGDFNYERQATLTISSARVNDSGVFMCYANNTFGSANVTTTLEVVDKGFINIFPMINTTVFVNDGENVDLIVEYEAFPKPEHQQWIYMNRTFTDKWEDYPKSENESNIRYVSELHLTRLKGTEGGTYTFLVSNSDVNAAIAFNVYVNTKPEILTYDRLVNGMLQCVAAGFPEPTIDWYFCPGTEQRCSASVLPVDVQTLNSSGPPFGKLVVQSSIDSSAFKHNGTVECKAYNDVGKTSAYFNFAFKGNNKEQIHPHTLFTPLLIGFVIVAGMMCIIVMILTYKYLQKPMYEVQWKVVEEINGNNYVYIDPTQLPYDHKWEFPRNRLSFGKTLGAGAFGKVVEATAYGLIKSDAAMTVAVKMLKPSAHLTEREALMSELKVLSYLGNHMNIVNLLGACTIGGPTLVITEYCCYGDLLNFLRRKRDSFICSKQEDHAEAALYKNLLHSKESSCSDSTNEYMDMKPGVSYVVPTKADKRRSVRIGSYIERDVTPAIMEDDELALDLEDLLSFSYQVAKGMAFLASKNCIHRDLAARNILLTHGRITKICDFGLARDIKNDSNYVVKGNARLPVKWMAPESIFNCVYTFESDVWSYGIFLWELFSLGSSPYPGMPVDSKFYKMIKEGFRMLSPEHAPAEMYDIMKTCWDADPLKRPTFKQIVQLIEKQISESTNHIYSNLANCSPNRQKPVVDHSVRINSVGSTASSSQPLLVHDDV

For `C[C@](O)(CO)Cn1cc(-c2ccn3ncc(C(=O)Nc4cc(-n5nnc([C@@H]6C[C@H]6F)n5)ccc4Cl)c3c2)cn1` (single isomer, unassigned) [Example 273, N-(2-chloro-5-(5-((1S,2R)-2-fluorocyclopropyl)-2H-tetrazol-2-yl)phenyl)-5-(1-((R)-2,3-dihydroxy-2-methylpropyl)-1H-pyrazol-4-yl)pyrazolo[1,5-a]pyridine-3-carboxamide or N-(2-chloro-5-(5-((1R,2S)-2-fluorocyclopropyl)-2H-tetrazol-2-yl)phenyl)-5-(1-((R)-2,3-dihydroxy-2-methylpropyl)-1H-pyrazol-4-yl)pyrazolo[1,5-a]pyridine-3-carboxamide], in data set [1], 0.5 nM corresponded to half-maximal inhibition (IC50). In data set [2], the efflux ratio at 2 h, 1 µM came to 4.9.

Turning to `COC(=O)N1CC(c2cnn(-c3ccc(C)c(NC(=O)c4cnn5ccc(NC6COC6)cc45)c3)n2)C1` [Example 141, methyl 3-(2-(4-methyl-3-(5-(oxetan-3-ylamino)pyrazolo[1,5-a]pyridine-3-carboxamido)phenyl)-2H-1,2,3-triazol-4-yl)azetidine-1-carboxylate], in data set [1], the 50% inhibitory concentration (IC50) (usually the point on the concentration scale where inhibition reaches its midpoint) worked out at 7.6 nM. In addition, the efflux ratio at 2 h, 1 µM in data set [2] is 36.4.

The molecule `CC(C)(O)Cn1cc(-c2ccn3ncc(C(=O)Nc4cc(-c5nnn(C6CC6)n5)ccc4Cl)c3c2)cn1` [Example 234, N-(2-chloro-5-(2-cyclopropyl-2H-tetrazol-5-yl)phenyl)-5-(1-(2-hydroxy-2-methylpropyl)-1H-pyrazol-4-yl)pyrazolo[1,5-a]pyridine-3-carboxamide] yielded a half-maximal inhibitory concentration (IC50) in data set [1] of 0.5 nM. Further, the efflux ratio at 2 h, 0.1 µM in data set [2] was 3.8.

The molecule `Cc1cc(Cl)c(NC(=O)c2cnn3ccc(-c4cnn(CC(C)(C)O)c4)cc23)cc1-c1nnn(C2CC2)n1` [Example 227, N-(2-chloro-5-(2-cyclopropyl-2H-tetrazol-5-yl)-4-methylphenyl)-5-(1-(2-hydroxy-2-methylpropyl)-1H-pyrazol-4-yl)pyrazolo[1,5-a]pyridine-3-carboxamide] had an IC50 in data set [1] of 1.9 nM. Also, the efflux ratio at 2 h, 0.1 µM in data set [2] came out at 5.

As to `COC(=O)N1CC(c2cnn(-c3ccc(C)c(NC(=O)c4cnn5ccc(N(C)CCO)cc45)c3)n2)C1` [Example 84, methyl 3-(2-(3-(5-((2-hydroxyethyl)(methyl)amino)pyrazolo[1,5-a]pyridine-3-carboxamido)-4-methylphenyl)-2H-1,2,3-triazol-4-yl)azetidine-1-carboxylate], inhibition in data set [1] was half-maximal at 21.9 nM (IC50). The efflux ratio at 2 h, 1 µM in data set [2] came out at 51.9.

In data set [1], `Cc1ccc(-c2nnn([C@H]3C[C@@H](C(F)(F)F)C3)n2)cc1NC(=O)c1cnn2ccc(N3CCN(CCO)CC3)cc12` [Example 106, 5-(4-(2-hydroxyethyl)piperazin-1-yl)-N-(2-methyl-5-(2-((1s,3s)-3-(trifluoromethyl)cyclobutyl)-2H-tetrazol-5-yl)phenyl)pyrazolo[1,5-a]pyridine-3-carboxamide] showed an IC50 of 5.8 nM. Moreover, the efflux ratio at 2 h, 1 µM in data set [2] is 37.4.

In data set [1], `Cc1nnn(-c2ccc(C)c(NC(=O)c3cnn4ccc(-c5cnn(CCO)c5)cc34)c2)n1` [Example 51, 5-(1-(2-hydroxyethyl)-1H-pyrazol-4-yl)-N-(2-methyl-5-(5-methyl-2H-tetrazol-2-yl)phenyl)pyrazolo[1,5-a]pyridine-3-carboxamide] displayed an IC50 of 27.4 nM. Further, in data set [2], the efflux ratio at 2 h, 1 µM is 5.5.

In turn, `COCCNc1ccn2ncc(C(=O)Nc3cc(-c4nnn([C@H]5C[C@@H](C(F)(F)F)C5)n4)c(F)cc3C)c2c1` [Example 108, N-(4-fluoro-2-methyl-5-(2-((1s,3s)-3-(trifluoromethyl)cyclobutyl)-2H-tetrazol-5-yl)phenyl)-5-((2-methoxyethyl)amino)pyrazolo[1,5-a]pyridine-3-carboxamide] showed an IC50 in data set [1] of 11.6 nM. Further, the efflux ratio at 2 h, 1 µM in data set [2] was determined as 4.

Turning to `COCCOc1ccc2c(C(=O)Nc3cc(-c4nnn(C5CN(C(=O)OC)C5)n4)ccc3C)cnn2c1` [Example 143, methyl 3-(5-(3-(6-(2-methoxyethoxy)pyrazolo[1,5-a]pyridine-3-carboxamido)-4-methylphenyl)-2H-tetrazol-2-yl)azetidine-1-carboxylate], it took 10.5 nM to reach half-maximal inhibition in data set [1] (IC50). The efflux ratio at 2 h, 1 µM in data set [2] amounted to 4.

`COCCNc1cc2c(C(=O)Nc3cc(-c4nnn(C5CN(C(=O)OC)C5)n4)ccc3C)cnn2cc1Cl` [Example 145, methyl 3-(5-(3-(6-chloro-5-((2-methoxyethyl)amino)pyrazolo[1,5-a]pyridine-3-carboxamido)-4-methylphenyl)-2H-tetrazol-2-yl)azetidine-1-carboxylate] registered an IC50 in data set [1] of 157 nM. In addition, the efflux ratio at 2 h, 1 µM in data set [2] stood at 6.4.

Molecule `Cc1ccc(-c2nnn(C)n2)cc1NC(=O)c1cnn2ccc(-c3cnn(CCO)c3)cc12` [Example 47, 5-(1-(2-hydroxyethyl)-1H-pyrazol-4-yl)-N-(2-methyl-5-(2-methyl-2H-tetrazol-5-yl)phenyl)pyrazolo[1,5-a]pyridine-3-carboxamide] yielded a 50% inhibitory concentration (IC50) in data set [1] of 9.8 nM. The efflux ratio at 2 h, 1 µM in data set [2] is 16.

In data set [1], `COC(=O)N1CC(c2cnn(-c3ccc(C)c(NC(=O)c4cnn5ccc(N6CCOCC6)cc45)c3)n2)C1` [Example 80, methyl 3-(2-(4-methyl-3-(5-morpholinopyrazolo[1,5-a]pyridine-3-carboxamido)phenyl)-2H-1,2,3-triazol-4-yl)azetidine-1-carboxylate] showed an IC50 of 9.2 nM. Further, the efflux ratio at 2 h, 1 µM in data set [2] came out at 4.

The molecule `Cc1ccc(-c2nnn([C@H]3C[C@@H](C(F)(F)F)C3)n2)cc1NC(=O)c1cnn2ccc(NCCO)cc12` [Example 120, 5-((2-hydroxyethyl)amino)-N-(2-methyl-5-(2-((1s,3s)-3-(trifluoromethyl)cyclobutyl)-2H-tetrazol-5-yl)phenyl)pyrazolo[1,5-a]pyridine-3-carboxamide or 5-((2-hydroxyethyl)amino)-N-(2-methyl-5-(2-((1r,3r)-3-(trifluoromethyl)cyclobutyl)-2H-tetrazol-5-yl)phenyl)pyrazolo[1,5-a]pyridine-3-carboxamide] had an IC50 in data set [1] of 4.1 nM. In addition, the efflux ratio at 2 h, 1 µM in data set [2] turned out to be 35.9.

As for `COC(=O)N1CC(n2nnc(-c3ccc(C)c(NC(=O)c4cnn5ccc(NCC(C)(F)F)cc45)c3)n2)C1` [Example 92, methyl 3-(5-(3-(5-((2,2-difluoropropyl)amino)pyrazolo[1,5-a]pyridine-3-carboxamido)-4-methylphenyl)-2H-tetrazol-2-yl)azetidine-1-carboxylate], the IC50 in data set [1] was 22.1 nM. Moreover, the efflux ratio at 2 h, 1 µM in data set [2] was 11.4.

Turning to `COC(=O)N1CC(n2nnc(-c3ccc(C)c(NC(=O)c4cnn5ccc(N6CC7(COC7)C6)cc45)c3)n2)C1` [Example 98, methyl 3-(5-(3-(5-(2-oxa-6-azaspiro[3.3]heptan-6-yl)pyrazolo[1,5-a]pyridine-3-carboxamido)-4-methylphenyl)-2H-tetrazol-2-yl)azetidine-1-carboxylate], in data set [1], inhibition was half-maximal at 47.8 nM (IC50). Besides, the efflux ratio at 2 h, 1 µM in data set [2] stood at 15.5.

Molecule `C[C@](O)(CO)Cn1cc(-c2ccn3ncc(C(=O)Nc4cc(-c5nnn(C6CC6)n5)ccc4Cl)c3c2)cn1` [Example 266, (R)-N-(2-chloro-5-(2-cyclopropyl-2H-tetrazol-5-yl)phenyl)-5-(1-(2,3-dihydroxy-2-methylpropyl)-1H-pyrazol-4-yl)pyrazolo[1,5-a]pyridine-3-carboxamide] displayed a half-inhibitory concentration (IC50) in data set [1] of 0.3 nM. Besides, in data set [2], the efflux ratio at 2 h, 1 µM amounted to 3.4.

Consider `Cc1nn(CCO)cc1-c1ccn2ncc(C(=O)Nc3cc(-c4nnn(C5CC5)n4)ccc3Cl)c2c1` [Example 238, N-[2-chloro-5-(2-cyclopropyl-2H-1,2,3,4-tetrazol-5-yl)phenyl]-5-[1-(2-hydroxyethyl)-3-methyl-1H-pyrazol-4-yl]pyrazolo[1,5-a]pyridine-3-carboxamide], for which half-maximal inhibition in data set [1] (IC50) was put at 0.2 nM. In addition, in data set [2], the efflux ratio at 2 h, 0.1 µM is 5.9.

Regarding `COC(=O)N1CC(n2nnc(-c3ccc(C)c(NC(=O)c4cnn5ccc(N6CCN(C)CC6)cc45)c3)n2)C1` [Example 66, methyl 3-(5-(4-methyl-3-(5-(4-methylpiperazin-1-yl)pyrazolo[1,5-a]pyridine-3-carboxamido)phenyl)-2H-tetrazol-2-yl)azetidine-1-carboxylate], in data set [1], half-maximal inhibition (IC50) was put at 64.9 nM. For the same molecule, the efflux ratio at 2 h, 1 µM in data set [2] was found to be 13.5.

As to `Cc1nn(CC(C)(C)O)cc1-c1ccn2ncc(C(=O)Nc3cc(-c4nnn(C5CC5)n4)c(F)cc3Cl)c2c1` [Example 251, N-(2-chloro-5-(2-cyclopropyl-2H-tetrazol-5-yl)-4-fluorophenyl)-5-(1-(2-hydroxy-2-methylpropyl)-3-methyl-1H-pyrazol-4-yl)pyrazolo[1,5-a]pyridine-3-carboxamide], the midpoint of inhibition in data set [1], the IC50, lay at 0.4 nM. Besides, the efflux ratio at 2 h, 0.1 µM in data set [2] worked out at 1.8.

`COC[C@@H](O)Cn1cc(-c2ccn3ncc(C(=O)Nc4cc(-c5nnn(C6CC6)n5)ccc4C)c3c2)c(C2CC2)n1` [Example 243, (S)-5-(3-cyclopropyl-1-(2-hydroxy-3-methoxypropyl)-1H-pyrazol-4-yl)-N-(5-(2-cyclopropyl-2H-tetrazol-5-yl)-2-methylphenyl)pyrazolo[1,5-a]pyridine-3-carboxamide] showed an IC50 in data set [1] of 0.1 nM. The efflux ratio at 2 h, 1 µM in data set [2] was found to be 13.5.

In the case of `Cc1nnn(-c2ccc(C)c(NC(=O)c3cnn4ccc(-c5cnn(CC(C)(C)O)c5)cc34)c2)n1` [Example 209, 5-(1-(2-hydroxy-2-methylpropyl)-1H-pyrazol-4-yl)-N-(2-methyl-5-(5-methyl-2H-tetrazol-2-yl)phenyl)pyrazolo[1,5-a]pyridine-3-carboxamide], the IC50 in data set [1] was 6.9 nM. Further, the efflux ratio at 2 h, 1 µM in data set [2] was 4.3.
